Values quoted from earlier work in paper PMC6844301, “Antibacterial activity of a Tribolium castaneum defensin in an in vitro infection model of Streptococcus pneumoniae” (Virulence, 2019).

System: multi-resistant clinical isolate serotype 19A (AMR)
Conditions: strain description of the AMR isolate in methods; method or ref not given
Experimental: They were grown on sheep blood agar plates for 10 h and then transferred to Todd Hewitt Yeast (THY) medium (Carl Roth GmbH, Karlsruhe) at a density of 4 × 10^7 bacteria/ml (Ultraspec 10 Cell Densitometer, Amersham Biosciences). Upon reaching a density of 2 × 10^8 bacteria/ml, the bacterial suspension was diluted to 5 × 10^6 bacteria/ml. To esta ...

Row | Compound | resistant against (antibiotic concentration) [µg/mL]
1 | CO/N=C(\C(=O)N[C@@H]1C(=O)N2C(C(=O)O)=C(COC(C)=O)CS[C@H]12)c1csc(N)n1 [Cefotaxim] | 4
2 | Penicillin | 8
3 | CN(C)[C@@H]1C(O)=C(C(N)=O)C(=O)[C@@]2(O)C(O)=C3C(=O)c4c(O)cccc4[C@@](C)(O)[C@H]3C[C@@H]12 [Tetracycline] | 32
4 | CCC[C@@H]1C[C@@H](C(=O)N[C@@H]([C@H]2O[C@H](SC)[C@H](O)[C@@H](O)[C@H]2O)[C@H](C)Cl)N(C)C1 [Clindamycin] | 256
